Data reported in patent publication US11124507B2, “1H-pyrrolopyridine compound, N-oxide thereof or salt thereof, agricultural and horticultural insecticide comprising the compound, and method for using the insecticide” (Nihon Nohyaku Co., Ltd., priority 2016, dated 2021).
Where a name gives a salt, the structure may show the parent alone. Read-outs that look alike come from different tables or passages of the source.

Tests used:
Type in all cases: in vivo
[1] = tested on: Myzus persicae; experiment: Test for control efficacy on Myzus persicae (foliar application, Chinese cabbage); conditions: 144 h, foliar application to potted Chinese cabbage plants, 6 days after application, read-out: control efficacy (control rate), activity level
From the text: Test for control efficacy on Myzus persicae Chinese cabbage plants were planted in plastic pots (diameter: 8 cm, height: 8 cm), Green peach aphids (Myzus persicae) were propagated on the plants, and the number of surviving Green peach aphids in each pot was counted. The condensed heterocyclic compounds represented by the general formula (1) of the present invention or salts thereof were separately dispersed in water and diluted to 500 ppm. The agrochemical dispersions were applied to the foliage of the potted Chinese cabbage plants. After the plants were air-dried, the pots were kept in a greenhouse. At 6 days after the foliar application, the number of surviving Green peach aphids on the Chinese cabbage plant in each pot was counted, the control rate was calculated according to the formula shown below, and the control efficacy was evaluated according to the criteria shown below. Control rate=100−{(T×Ca)/(Ta×C)}×100 [Math. 1] Ta: the number of survivors before the foliar application in a treatment plot T: the number of survivors after the foliar application in a treatment plot Ca: the number of survivors before the foliar application in a non-treatment plot C: the number of survivors after the foliar application in a non-treatment plot Criteria A: the control rate is 100%. B: the control rate is 90 to 99%. C: the control rate is 80 to 89%. D: the control rate is 50 to 79%.

[2] = tested on: Laodelphax striatellus; experiment: Insecticidal test on Laodelphax striatellus (rice seedling dip); conditions: 192 h, read-out: insecticidal efficacy (corrected mortality rate), activity level
From the text: Insecticidal Test on Laodelphax striatellus
The condensed heterocyclic compounds represented by the general formula (1) of the present invention or salts thereof were separately dispersed in water and diluted to 500 ppm. Rice plant seedlings (variety: Nihonbare) were dipped in the agrochemical dispersions for 30 seconds. After air-dried, each seedling was put into a separate glass test tube and inoculated with ten 3rd-instar larvae of Laodelphax striatellus, and then the glass test tubes were capped with cotton plugs. At 8 days after the inoculation, the numbers of surviving larvae and dead larvae were counted, the corrected mortality rate was calculated according to the formula shown below, and the insecticidal efficacy was evaluated according to the criteria shown below. Corrected mortality rate (%)=100×(Survival rate in a non-treatment plot−Survival rate in a treatment plot)/Survival rate in a non-treatment plot [Math. 2] Corrected Mortality Rate A: the corrected mortality rate is 100%.

[3] = tested on: Plutella xylostella; experiment: Insecticidal test on Plutella xylostella (dip of Chinese cabbage seedlings with laid eggs); conditions: 144 h
Procedure: Insecticidal Test on Plutella xylostella
Adults of Plutella xylostella were released onto Chinese cabbage seedlings and allowed to lay eggs thereon. […] After air-dried, the seedlings were kept in a thermostatic chamber at 25° C. […] This test was conducted in triplicate using 10 adults of Plutella xylostella per plot. Corrected mortality rate (%)=100×(Number of hatched larvae in a non-treatment plot−Number of hatched larvae in a treatment plot)/Number of hatched larvae in a non-treatment plot [Math. 3]

[4] = 500 ppm, rice seedlings dipped 30 seconds, ten 3rd-instar larvae, 8 days after inoculation
[5] = 500 ppm, seedlings with laid eggs dipped about 30 seconds, 25° C., 6 days after dip treatment, criteria of Test Example 2, read-out: insecticidal efficacy (corrected mortality rate), activity level
[6] = read-out: insecticidal efficacy (corrected mortality rate), activity level

CCS(=O)(=O)c1cc2cc(Cl)ccc2nc1-c1[nH]c2cc(C(F)(F)F)cnc2c1F [Compound 1-3, 2-(6-chloro-3-ethylsulfonyl-quinolin-2-yl)-3-fluoro-6-trifluoromethyl-1H-pyrrolo[3,2-b]pyridine]
100%: pest or weed control at 500 ppm [1] | mortality at 500 ppm [2, 4] | mortality at 500 ppm [3, 5]

CCOC(=O)Nc1ccc2cc(S(=O)(=O)CC)c(-c3[nH]c4cc(C(F)(F)F)cnc4c3F)nc2c1 [Compound 1-13, 2-(7-ethoxycarbonylamino-3-ethylsulfonyl-quinolin-2-yl)-3-fluoro-6-trifluoromethyl-1H-pyrrolo[3,2-b]pyridine]
100%: pest or weed control at 500 ppm [1] | mortality at 500 ppm [2] | mortality at 500 ppm [3, 6]

CCS(=O)(=O)c1cc2cc(Cl)ccc2nc1-c1[nH]c2cc(C(F)(F)F)cnc2c1Cl [Compound 1-44, 3-chloro-2-(6-chloro-3-ethylsulfonyl-quinolin-2-yl)-6-trifluoromethyl-1H-pyrrolo[3,2-b]pyridine]
100%: pest or weed control at 500 ppm [1] | mortality at 500 ppm [2, 4] | mortality at 500 ppm [3, 5]

CCS(=O)(=O)c1cc2cc(Cl)ccc2nc1-c1c(F)c2ncc(C(F)(F)F)cc2n1C(C)=O [Compound 2-1, 1-acetyl-2-(6-chloro-3-ethylsulfonyl-quinolin-2-yl)-3-fluoro-6-trifluoromethyl-1H-pyrrolo[3,2-b]pyridine]
100%: pest or weed control at 500 ppm [1] | mortality at 500 ppm [2, 4] | mortality at 500 ppm [3, 5]

CCSc1cc2cc(Cl)ccc2nc1-c1cc2ncc(C(F)(F)F)cc2n1C(=O)OC(C)(C)C [Compound 2-41, 1-(tert-butoxycarbonyl)-2-(6-chloro-3-ethylthio-quinolin-2-yl)-6-trifluoromethyl-1H-pyrrolo[3,2-b]pyridine]
100%: pest or weed control at 500 ppm [1] | mortality at 500 ppm [2, 4] | mortality at 500 ppm [3, 5]

CCS(=O)(=O)c1cc2cc(Cl)ccc2nc1-c1cc2ncc(C(F)(F)F)cc2n1C(=O)OC(C)(C)C [Compound 2-42, 1-(tert-butoxycarbonyl)-2-(6-chloro-3-ethylsulfonyl-quinolin-2-yl)-6-trifluoromethyl-1H-pyrrolo[3,2-b]pyridine]
100%: pest or weed control at 500 ppm [1] | mortality at 500 ppm [2, 4] | mortality at 500 ppm [3, 5]

CCOC(=O)Nc1ccc2cc(S(=O)(=O)CC)c(-c3c(F)c4ncc(C(F)(F)F)cc4n3C(=O)OC(C)(C)C)nc2c1 [Compound 2-49, 1-(tert-butoxycarbonyl)-2-(7-ethoxycarbonylamino-3-ethylsulfonyl-quinolin-2-yl)-3-fluoro-6-trifluoromethyl-1H-pyrrolo[3,2-b]pyridine]
100%: pest or weed control at 500 ppm [1] | mortality at 500 ppm [2] | mortality at 500 ppm [3, 6]

CCS(=O)(=O)c1cc2ccc(Br)cc2nc1-c1c(Cl)c2ncc(C(F)(F)F)cc2n1C(=O)OC(C)(C)C [Compound 2-61, 1-(tert-butoxycarbonyl)-2-(7-bromo-3-ethylsulfonyl-quinolin-2-yl)-3-chloro-6-trifluoromethyl-1H-pyrrolo[3,2-b]pyridine]
100%: pest or weed control at 500 ppm [1] | mortality at 500 ppm [2, 4] | mortality at 500 ppm [3, 5]

CCS(=O)(=O)c1cc2ccc(Br)cc2nc1-c1c(Cl)c2ncc(C(F)(F)F)cc2n1COC [Compound 2-65, 1-methoxymethyl-2-(7-bromo-3-ethylsulfonyl-quinolin-2-yl)-3-chloro-6-trifluoromethyl-1H-pyrrolo[3,2-b]pyridine]
100%: pest or weed control at 500 ppm [1] | mortality at 500 ppm [2, 4] | mortality at 500 ppm [3, 5]

CCS(=O)(=O)c1cc2ccc(C=O)cc2nc1-c1c(Cl)c2ncc(C(F)(F)F)cc2n1C(=O)OC(C)(C)C [Compound 2-97, 1-(tert-butoxycarbonyl)-2-(7-formyl-3-ethylsulfonyl-quinolin-2-yl)-3-chloro-6-trifluoromethyl-1H-pyrrolo[3,2-b]pyridine]
100%: pest or weed control at 500 ppm [1] | mortality at 500 ppm [2, 4] | mortality at 500 ppm [3, 5]

C=Cc1ccc2cc(S(=O)(=O)CC)c(-c3c(Cl)c4ncc(C(F)(F)F)cc4n3C(=O)OC(C)(C)C)nc2c1 [Compound 2-98, 1-(tert-butoxycarbonyl)-2-(7-vinyl-3-ethylsulfonyl-quinolin-2-yl)-3-chloro-6-trifluoromethyl-1H-pyrrolo[3,2-b]pyridine]
100%: pest or weed control at 500 ppm [1] | mortality at 500 ppm [2, 4] | mortality at 500 ppm [3, 5]

CCS(=O)(=O)c1cc2cc(Cl)ccc2nc1-c1cc2ncc(C(F)(F)F)cc2[nH]1 [Compound 4-3, 2-(6-chloro-3-ethylsulfonyl-quinolin-2-yl)-6-trifluoromethyl-1H-pyrrolo[3,2-b]pyridine trifluoroacetate]
100%: pest or weed control at 500 ppm [1] | mortality at 500 ppm [2, 4] | mortality at 500 ppm [3, 5]
